Data reported in patent US7169579B2, “Method of isolating Streptococcus sobrinus and selection medium” (Nihon University, priority 2001, dated 2007).
Converted amounts (≈) assume the structure as drawn. Like-named read-outs stand apart in the source and are kept apart here.

Assays:
Format in all cases: cell-based
[1] = test system: Streptococcus mutans; test: Susceptibility test to antibiotics, microbroth dilution method (MIC); details: for susceptibilities of Streptococcus mutans relative to those of Streptococcus sobrinus: from MICs of Table 2; for difference between Streptococcus mutans and Streptococcus sobrinus in their susceptibilities: in words, from MICs of Tables 2 and 3
Description: (§1) The susceptibility test was carried out in accordance with microbroth dilution method.
(§2) The above-described antibiotics were dissolved in an appropriate solution, respectively, and the respective antibiotic solutions were divided into serial two-fold dilutions in a 96-well microtiter plates containing BHI broth. The bacteria were precultured in BHI broth, respectively, and inoculated into the wells containing the antibiotic solution to make a final concentration of the bacteria to be 1×10^4 cells/well, respectively. The plates were anaerobically incubated at a temperature of 37° C. for 48 hours. After mixing the broth in each well by the use of a pipette, the absorbance at 550 nm in each well was measured with a microplate reader (manufactured by Corona Electric Co., Ibaraki, Japan), to determine bacterial growth. The antibiotic concentration at which no bacterial growth was observed was defined as the minimal inhibitory concentration (MIC).

[2] = test system: Streptococcus sobrinus; test: as above
Description: as §1, §2

[3] = test system: Streptococcus mutans; test: Recovery from no-growth wells on MS agar: bactericidal or bacteriostatic
Description: (§3) Aliquots of 10 μl of the broth in the well, which no bacterial growth was observed were inoculated onto Mitis Salivarius Agar (MS medium; manufactured by Difco) plates, respectively, and anaerobically incubated at a temperature of 37° C. for 48 hours. The recovery of the inoculated bacteria was calculated to estimate which the mechanism of growth inhibition was bactericidal or bacteriostatic.

[4] = test system: Streptococcus sobrinus; test: as above
Description: as §3

[5] = Streptococcus mutans, Streptococcus mutans 10449 (serotype c), read-out: MIC
[6] = Streptococcus mutans, Streptococcus mutans Ingbritt, serotype c, read-out: MIC
[7] = Streptococcus mutans, Streptococcus mutans JC2 (serotype c), read-out: MIC
[8] = Streptococcus mutans, Streptococcus mutans LM7, serotype e, read-out: MIC
[9] = Streptococcus mutans, Streptococcus mutans NUM-Sme1, serotype e, read-out: MIC
[10] = Streptococcus mutans, Streptococcus mutans NUM-Smf1, serotype f, read-out: MIC
[11] = Streptococcus mutans, Streptococcus mutans OMZ175, serotype f, read-out: MIC
[12] = Streptococcus mutans, Streptococcus mutans PS14, serotype c, read-out: MIC
[13] = Streptococcus mutans, strains of Table 2, read-out: MIC to Streptococcus mutans
[14] = Streptococcus mutans, strains of serotype f of Streptococcus mutans, summary of Table 3, read-out: MIC
[15] = Streptococcus mutans, strains of serotypes c and e of Streptococcus mutans, summary of Table 3, read-out: MIC
[16] = Streptococcus sobrinus, Streptococcus sobrinus 0MZ176 (serotype d), read-out: MIC
[17] = Streptococcus sobrinus, Streptococcus sobrinus B-13 (serotype d), read-out: MIC
[18] = Streptococcus sobrinus, Streptococcus sobrinus NIDR6715, serotype g, read-out: MIC
[19] = Streptococcus sobrinus, Streptococcus sobrinus NUM-Ssd1, serotype d, read-out: MIC
[20] = Streptococcus sobrinus, Streptococcus sobrinus NUM-Ssd2, serotype d, read-out: MIC
[21] = Streptococcus sobrinus, Streptococcus sobrinus OMZ65, serotype g, read-out: MIC
[22] = Streptococcus sobrinus, strains of Table 2, read-out: MIC to Streptococcus sobrinus
[23] = Streptococcus mutans strains of Table 3
[24] = Streptococcus mutans, strains of Table 2
[25] = Streptococcus sobrinus strains of Table 3
[26] = Streptococcus sobrinus, strains of Table 2
[27] = Streptococcus mutans 10449 (serotype c)

## C[C@H]1[C@H](NC(=O)/C(=N\OC(C)(C)C(=O)O)c2csc(N)n2)C(=O)N1S(=O)(=O)O [Aztreonam]
[1]; [5]
  MIC: 125 mg/L (≈ 287 µM)
[1]; [6]
  MIC: 125 mg/L (≈ 287 µM)
[1]; [7]
  MIC: 125 mg/L (≈ 287 µM)
[1]; [8]
  MIC: 125 mg/L (≈ 287 µM)
[1]; [9]
  MIC: 125 mg/L (≈ 287 µM)
[1]; [10]
  MIC: 250 mg/L (≈ 574 µM)
[1]; [11]
  MIC: 250 mg/L (≈ 574 µM)
[1]; [12]
  MIC: 125 mg/L (≈ 287 µM)
[1]; [13]
  MIC: 125 mg/L (≈ 287 µM)
[1]; [14]
  MIC: 250 mg/L (≈ 574 µM)
[1]; [15]
  MIC: 125 mg/L (≈ 287 µM)
[1]
  susceptibilities of Streptococcus mutans relative to those of Streptococcus sobrinus: 16 fold
[2]; [16]
  MIC: 2000 mg/L (≈ 4590 µM)
[2]; [17]
  MIC: 2000 mg/L (≈ 4590 µM)
[2]; [18]
  MIC: 2000 mg/L (≈ 4590 µM)
[2]; [19]
  MIC: 2000 mg/L (≈ 4590 µM)
[2]; [20]
  MIC: 2000 mg/L (≈ 4590 µM)
[2]; [21]
  MIC: 2000 mg/L (≈ 4590 µM)
[2]; [22]
  MIC: 2000 mg/L (≈ 4590 µM)
[3]; [23]
  mode of action (bactericidal or bacteriostatic): bactericidal
[3]; [24]
  mode of action (bactericidal or bacteriostatic): bactericidal
[4]; [25]
  mode of action (bactericidal or bacteriostatic): bactericidal
[4]; [26]
  mode of action (bactericidal or bacteriostatic): bactericidal

## CO[C@@]1(NC(=O)Cc2cccs2)C(=O)N2C(C(=O)O)=C(COC(N)=O)CS[C@@H]21 [Cefoxitin]
[1]; [5]
  MIC: 3.13 mg/L (≈ 7.32 µM)
[1]; [7]
  MIC: 3.13 mg/L (≈ 7.32 µM)
[1]
  difference between Streptococcus mutans and Streptococcus sobrinus in their susceptibilities: no significant difference
[2]; Streptococcus sobrinus OMZ176 vs other strains of Table 2
  susceptibility of OMZ176 strain relative to the other bacterial strains: approximately 4 times
[2]; [16]
  MIC: 12.5 mg/L (≈ 29.2 µM)
[2]; [17]
  MIC: 3.13 mg/L (≈ 7.32 µM)

## O=C(Cc1cccs1)N[C@@H]1C(=O)N2C(C(=O)[O-])=C(C[n+]3ccccc3)CS[C@H]12 [Cephaloridine]
[1]; Streptococcus mutans
  MIC: 0.025 mg/L (≈ 0.0602 µM)
[1]; [27]
  MIC: 0.025 mg/L (≈ 0.0602 µM)
[1]
  difference between Streptococcus mutans and Streptococcus sobrinus in their susceptibilities: no significant difference
[2]; Streptococcus sobrinus
  MIC: 0.025 mg/L (≈ 0.0602 µM)
[2]; Streptococcus sobrinus B-13 (serotype d)
  MIC: 0.025 mg/L (≈ 0.0602 µM)

## NC(=O)OC[C@@H]1[C@H](NC(=O)/C(=N\OCC(=O)O)c2csc(N)n2)C(=O)N1S(=O)(=O)O [Carumonam]
[1]; [5]
  MIC: 125 mg/L (≈ 268 µM)
[1]; [6]
  MIC: 125 mg/L (≈ 268 µM)
[1]; [7]
  MIC: 125 mg/L (≈ 268 µM)
[1]; [8]
  MIC: 125 mg/L (≈ 268 µM)
[1]; [9]
  MIC: 125 mg/L (≈ 268 µM)
[1]; [10]
  MIC: 250 mg/L (≈ 536 µM)
[1]; [11]
  MIC: 250 mg/L (≈ 536 µM)
[1]; [12]
  MIC: 125 mg/L (≈ 268 µM)
[1]; [13]
  MIC: 125 mg/L (≈ 268 µM)
[1]; [14]
  MIC: 250 mg/L (≈ 536 µM)
[1]; [15]
  MIC: 125 mg/L (≈ 268 µM)
[1]
  susceptibilities of Streptococcus mutans relative to those of Streptococcus sobrinus: 16 fold
[2]; [16]
  MIC: 2000 mg/L (≈ 4290 µM)
[2]; [17]
  MIC: 2000 mg/L (≈ 4290 µM)
[2]; [18]
  MIC: 2000 mg/L (≈ 4290 µM)
[2]; [19]
  MIC: 2000 mg/L (≈ 4290 µM)
[2]; [20]
  MIC: 2000 mg/L (≈ 4290 µM)
[2]; [21]
  MIC: 1000 mg/L (≈ 2140 µM)
[2]; [22]
  MIC: 2000 mg/L (≈ 4290 µM)
[3]; [23]
  mode of action (bactericidal or bacteriostatic): bactericidal
[3]; [24]
  mode of action (bactericidal or bacteriostatic): bactericidal
[4]; [25]
  mode of action (bactericidal or bacteriostatic): bactericidal
[4]; [26]
  mode of action (bactericidal or bacteriostatic): bactericidal

## CC1(C)S[C@@H]2[C@H](NC(=O)Cc3ccccc3)C(=O)N2[C@H]1C(=O)O [Benzylpenicillin]
[1]; [5]
  MIC: 0.1 mg/L (≈ 0.299 µM)
[1]; [7]
  MIC: 0.1 mg/L (≈ 0.299 µM)
[2]; [16]
  MIC: 0.05 mg/L (≈ 0.15 µM)
[2]; [17]
  MIC: 0.05 mg/L (≈ 0.15 µM)
[2]; from MICs of Table 2
  susceptibilities of Streptococcus sobrinus relative to those of Streptococcus mutans: twice as high

## C[C@@H](O)[C@H]1C(=O)N2C(C(=O)O)=C(SCCN=CN)C[C@H]12 [Imipenem]
[1]; Streptococcus mutans
  MIC: 0.125 mg/L (≈ 0.418 µM)
[1]; [27]
  MIC: 0.125 mg/L (≈ 0.418 µM)
[2]; [16]
  MIC: 0.031 mg/L (≈ 0.104 µM)
[2]; [17]
  MIC: 0.016 mg/L (≈ 0.0534 µM)

## CC1=C(C(=O)O)N2C(=O)[C@@H](NC(=O)[C@H](N)c3ccccc3)[C@H]2SC1 [Cephalexin]
[1]; [5]
  MIC: 1.25 mg/L (≈ 3.6 µM)
[1]; [7]
  MIC: 1.25 mg/L (≈ 3.6 µM)
[1]
  difference between Streptococcus mutans and Streptococcus sobrinus in their susceptibilities: no significant difference
[2]; [16]
  MIC: 1.25 mg/L (≈ 3.6 µM)
[2]; [17]
  MIC: 1.25 mg/L (≈ 3.6 µM)

## Cc1nnc(SCC2=C(C(=O)O)N3C(=O)[C@@H](NC(=O)Cn4cnnn4)[C@H]3SC2)s1 [Cefazoline]
[1]; [5]
  MIC: 0.25 mg/L (≈ 0.55 µM)
[1]; [7]
  MIC: 0.25 mg/L (≈ 0.55 µM)
[1]
  difference between Streptococcus mutans and Streptococcus sobrinus in their susceptibilities: no significant difference
[2]; [16]
  MIC: 0.25 mg/L (≈ 0.55 µM)
[2]; [17]
  MIC: 0.5 mg/L (≈ 1.1 µM)

## Cc1onc(-c2ccccc2Cl)c1C(=O)N[C@@H]1C(=O)N2[C@@H]1SC(C)(C)[C@@H]2C(=O)O [Cloxacillin]
[1]; [5]
  MIC: 0.63 mg/L (≈ 1.45 µM)
[1]; [7]
  MIC: 0.63 mg/L (≈ 1.45 µM)
[1]
  susceptibilities of Streptococcus mutans relative to those of Streptococcus sobrinus: twice as high
[2]; [16]
  MIC: 1.25 mg/L (≈ 2.87 µM)
[2]; [17]
  MIC: 1.25 mg/L (≈ 2.87 µM)
